EC50 data for 23 molecules are collected here from patent publication US11254663B2 (BRISTOL-MYERS SQUIBB COMPANY, priority 2019, dated 2022).

Structures are written as SMILES. Read-outs that look alike come from different tables or passages of the source.

In the assay the target is FXR (Homo sapiens (Human), UniProt Q96RI1). Briefly: transient human FXR/Gal4-luciferase reporter assay. The assay is classed as cell-based. Put shortly: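 HEK293 cells stably carrying a 5×Gal4 response element–firefly luciferase reporter were transiently transfected overnight with a Gal4 DBD–human FXR LBD fusion plasmid. Compound was added in DMSO and cells were incubated overnight at 37 °C, 5% CO2. Activity was read as Steady-Glo luminescence.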

Setting [1] is: Gal4-hFXR fusion construct, HEK293 reporter cells, response relative to 8 μM GW-4064.

Chain of FXR (Q96RI1 262-486): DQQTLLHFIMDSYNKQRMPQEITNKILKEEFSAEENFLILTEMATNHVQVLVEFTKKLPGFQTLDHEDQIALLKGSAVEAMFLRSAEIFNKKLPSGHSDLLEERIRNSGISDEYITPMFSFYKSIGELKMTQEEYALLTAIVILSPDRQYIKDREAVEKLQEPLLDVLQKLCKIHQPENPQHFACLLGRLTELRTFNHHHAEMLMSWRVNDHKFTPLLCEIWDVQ

Consider `N#Cc1cccc(-c2cccc(N(CC34CCC(c5nc(C6CC6)no5)(CC3)CC4)C(=O)C34CC(F)(C3)C4)c2)n1` [Example 292, N-(3-(6-cyanopyridin-2-yl)phenyl)-N-((4-(3-cyclopropyl-1,2,4-oxadiazol-5-yl)bicyclo[2.2.2]octan-1-yl)methyl)-3-fluorobicyclo[1.1.1]pentane-1-carboxamide], for which, under setting [1], the midpoint of the response, the EC50, lay at 0.148 µM.

Regarding `CC(C)(F)c1nc(C23CCC(CN(C(=O)OC(C)(C)C(F)(F)F)c4cccc(-c5ccc(C6(C#N)CC6)c(F)c5)c4)(CC2)CC3)no1` [Example 591, 1,1,1-trifluoro-2-methylpropan-2-yl (4′-(1-cyanocyclopropyl)-3′-fluoro-[1,1′-biphenyl]-3-yl)((4-(5-(2-fluoropropan-2-yl)-1,2,4-oxadiazol-3-yl)bicyclo[2.2.2]octan-1-yl)methyl) carbamate], under setting [1], the EC50 came out at 0.077 µM.

Take `CC(C)c1nc(C23CCC(CN(C(=O)C45CC(F)(C4)C5)c4cccc(-c5cnc(C(F)(F)F)nc5)c4)(CC2)CC3)no1` [Example 435, 3-fluoro-N-((4-(5-isopropyl-1,2,4-oxadiazol-3-yl)bicyclo[2.2.2]octan-1-yl)methyl)-N-(3-(2-(trifluoromethyl)pyrimidin-5-yl)phenyl)bicyclo[1.1.1]pentane-1-carboxamide]: it took 0.24 µM to reach a half-maximal effect under setting [1] (EC50).

The molecule `O=C(N(CC12CCC(c3noc(C(F)F)n3)(CC1)CC2)c1cccc(-c2ccc(OC(F)F)cc2)c1)C12CC(F)(C1)C2` [Example 465, N-(4′-(difluoromethoxy)-[1,1′-biphenyl]-3-yl)-N-((4-(5-(difluoromethyl)-1,2,4-oxadiazol-3-yl)bicyclo[2.2.2]octan-1-yl)methyl)-3-fluorobicyclo[1.1.1]pentane-1-carboxamide] came in with an EC50 of 0.18 µM.

`CCc1ccc(-c2cccc(N(CC34CCC(c5ccc(C(F)(F)F)cn5)(CC3)CC4)C(=O)C34CC(F)(C3)C4)c2)cc1` [Example 497, N-(4′-ethyl-[1,1′-biphenyl]-3-yl)-3-fluoro-N-((4-(5-(trifluoromethyl)pyridin-2-yl)bicyclo[2.2.2]octan-1-yl)methyl)bicyclo[1.1.1]pentane-1-carboxamide] yielded an EC50 of 0.989 µM.

Regarding `CCOc1ccc(-c2cccc(N(CC34CCC(c5nc(C6CC6)no5)(CC3)CC4)C(=O)C34CC(F)(C3)C4)c2)cn1` [Example 281, N-((4-(3-cyclopropyl-1,2,4-oxadiazol-5-yl)bicyclo[2.2.2]octan-1-yl)methyl)-N-(3-(6-ethoxypyridin-3-yl)phenyl)-3-fluorobicyclo[1.1.1]pentane-1-carboxamide], it took 0.066 µM to reach a half-maximal effect under setting [1] (EC50).

Under setting [1], `COc1ccc(-c2cccc(N(CC34CCC(c5nc(C6CC6)no5)(CC3)CC4)C(=O)C34CC(F)(C3)C4)c2)cc1C#N` [Example 296, N-(3′-cyano-4′-methoxy-[1,1′-biphenyl]-3-yl)-N-((4-(3-cyclopropyl-1,2,4-oxadiazol-5-yl)bicyclo[2.2.2]octan-1-yl)methyl)-3-fluorobicyclo[1.1.1]pentane-1-carboxamide] registered an EC50 of 0.294 µM. Compared with the last molecule, the EC50 is about 4.5-fold higher.

As to `O=C(N(CC12CCC(c3nc(C(F)F)no3)(CC1)CC2)c1cccc(-c2cnc(C3CC3)nc2)c1)C12CC(F)(C1)C2` [Example 466, N-(3-(2-cyclopropylpyrimidin-5-yl)phenyl)-N-((4-(3-(difluoromethyl)-1,2,4-oxadiazol-5-yl)bicyclo[2.2.2]octan-1-yl)methyl)-3-fluorobicyclo[1.1.1]pentane-1-carboxamide], under setting [1], the EC50 was found to be 0.349 µM.

For `CC(C)Oc1ccc(-c2ccnc(N(CC34CCC(c5noc(C(C)(F)F)n5)(CC3)CC4)C(=O)OC(C)(C)C(F)(F)F)c2)cc1` [Example 610, 1,1,1-trifluoro-2-methylpropan-2-yl ((4-(5-(1,1-difluoroethyl)-1,2,4-oxadiazol-3-yl)bicyclo[2.2.2]octan-1-yl)methyl)(4-(4-isopropoxyphenyl)pyridin-2-yl)carbamate], a half-maximal response under setting [1] (EC50) required 0.047 µM. This EC50 lies about 7.4-fold lower than the previous one.

In the case of `N#Cc1ccc(-c2cccc(N(CC34CCC(c5nc(C6CC6)no5)(CC3)CC4)C(=O)C34CC(F)(C3)C4)c2)cc1` [Example 302, N-(4′-cyano-[1,1′-biphenyl]-3-yl)-N-((4-(3-cyclopropyl-1,2,4-oxadiazol-5-yl)bicyclo[2.2.2]octan-1-yl)methyl)-3-fluorobicyclo[1.1.1]pentane-1-carboxamide], under setting [1], the midpoint of the response, the EC50, lay at 0.861 µM.

In turn, `CCOc1ccc(-c2cccc(N(CC34CCC(c5noc(C(C)C)n5)(CC3)CC4)C(=O)C34CC(F)(C3)C4)c2)cc1` [Example 431, N-(4′-ethoxy-[1,1′-biphenyl]-3-yl)-3-fluoro-N-((4-(5-isopropyl-1,2,4-oxadiazol-3-yl)bicyclo[2.2.2]octan-1-yl)methyl)bicyclo[1.1.1]pentane-1-carboxamide] registered an EC50 under setting [1] of 0.025 µM. This EC50 is about 34-fold lower than that of the molecule before.

For `CC(C)c1noc(C23CCC(CN(C(=O)C45CC(F)(C4)C5)c4cccc(-c5ccc(NS(=O)(=O)C6CC6)cc5)c4)(CC2)CC3)n1` [Example 379, N-(4′-(cyclopropanesulfonamido)-[1,1′-biphenyl]-3-yl)-3-fluoro-N-((4-(3-isopropyl-1,2,4-oxadiazol-5-yl)bicyclo[2.2.2]octan-1-yl)methyl)bicyclo[1.1.1]pentane-1-carboxamide], under setting [1], the EC50 is 0.132 µM.

For the molecule `O=C(N(CC12CCC(c3ccc(C(F)(F)F)cn3)(CC1)CC2)c1cccc(-c2ccc(OC(F)F)cc2)c1)C12CC(F)(C1)C2` [Example 493, N-(4′-(difluoromethoxy)-[1,1′-biphenyl]-3-yl)-3-fluoro-N-((4-(5-(trifluoromethyl)pyridin-2-yl)bicyclo[2.2.2]octan-1-yl)methyl)bicyclo[1.1.1]pentane-1-carboxamide], the EC50 stood at 0.552 µM.

`CCOc1ccc(-c2cccc(N(CC34CCC(c5noc(C6(C(F)(F)F)CC6)n5)(CC3)CC4)C(=O)C34CC(F)(C3)C4)c2)cc1` [Example 521, N-(4′-ethoxy-[1,1′-biphenyl]-3-yl)-3-fluoro-N-((4-(5-(1-(trifluoromethyl)cyclopropyl)-1,2,4-oxadiazol-3-yl)bicyclo[2.2.2]octan-1-yl)methyl)bicyclo[1.1.1]pentane-1-carboxamide] had an EC50 under setting [1] of 0.112 µM.

Molecule `Cc1nc2ccc(-c3ccnc(N(CC45CCC(c6nc(C(C)(C)C)no6)(CC4)CC5)C(=O)C45CC(F)(C4)C5)c3)cc2s1` [Example 551, N-((4-(3-(tert-butyl)-1,2,4-oxadiazol-5-yl)bicyclo[2.2.2]octan-1-yl)methyl)-3-fluoro-N-(4-(2-methylbenzo[d]thiazol-6-yl)pyridin-2-yl)bicyclo[1.1.1]pentane-1-carboxamide] returned an EC50 under setting [1] of 0.055 µM. This EC50 is about 2-fold lower than that of the molecule before.

Regarding `COc1cc(-c2cccc(N(CC34CCC(c5cc(C(F)(F)F)ccn5)(CC3)CC4)C(=O)C34CC(F)(C3)C4)c2)ccn1` [Example 241, 3-fluoro-N-(3-(2-methoxypyridin-4-yl)phenyl)-N-((4-(4-(trifluoromethyl)pyridin-2-yl)bicyclo[2.2.2]octan-1-yl)methyl)bicyclo[1.1.1]pentane-1-carboxamide], the EC50 under setting [1] was found to be 1.06 µM.

`CS(=O)(=O)Nc1ccc(-c2cccc(N(CC34CCC(c5noc(C6(C(F)(F)F)CC6)n5)(CC3)CC4)C(=O)C34CC(F)(C3)C4)c2)cc1` [Example 523, 3-fluoro-N-(4′-(methylsulfonamido)-[1,1′-biphenyl]-3-yl)-N-((4-(5-(1-(trifluoromethyl)cyclopropyl)-1,2,4-oxadiazol-3-yl)bicyclo[2.2.2]octan-1-yl)methyl)bicyclo[1.1.1]pentane-1-carboxamide] gave an EC50 of 0.189 µM.

As to `CC(C)Oc1ccc(-c2cc(N(CC34CCC(c5noc(C6(F)CC6)n5)(CC3)CC4)C(=O)NC(C)(C)C)ccc2F)cc1` [Example 586, 3-(tert-butyl)-1-(6-fluoro-4′-isopropoxy-[1,1′-biphenyl]-3-yl)-1-((4-(5-(1-fluorocyclopropyl)-1,2,4-oxadiazol-3-yl)bicyclo[2.2.2]octan-1-yl)methyl)urea], the EC50 under setting [1] came to 0.036 µM.

`COc1cc(-c2cccc(N(CC34CCC(c5nnc(C)s5)(CC3)CC4)C(=O)C3CC(O)(C(F)(F)F)C3)c2)ccn1` [Example 236, (1S,3S)-3-hydroxy-N-(3-(2-methoxypyridin-4-yl)phenyl)-N-((4-(5-methyl-1,3,4-thiadiazol-2-yl)bicyclo[2.2.2]octan-1-yl)methyl)-3-(trifluoromethyl)cyclobutane-1-carboxamide]: the EC50 under setting [1] was found to be 1.54 µM. Compared with the last molecule, the EC50 is about 43-fold higher.

Consider `Cc1nc2ccc(-c3cccc(N(CC45CCC(c6nc(C7CC7)no6)(CC4)OC5)C(=O)C4CC(C(F)F)C4)c3)cc2s1` (centres unmarked) [Example 566, N-((1-(3-cyclopropyl-1,2,4-oxadiazol-5-yl)-2-oxabicyclo[2.2.2]octan-4-yl)methyl)-3-(difluoromethyl)-N-(3-(2-methylbenzo[d]thiazol-6-yl)phenyl)cyclobutane-1-carboxamide], for which it took 0.922 µM to reach a half-maximal effect (EC50).

Regarding `CCOc1ccc(-c2cccc(N(CC34CCC(c5noc(C(C)C)n5)(CC3)CC4)C(=O)C34CC(F)(C3)C4)c2)cn1` [Example 432, N-(3-(6-ethoxypyridin-3-yl)phenyl)-3-fluoro-N-((4-(5-isopropyl-1,2,4-oxadiazol-3-yl)bicyclo[2.2.2]octan-1-yl)methyl)bicyclo[1.1.1]pentane-1-carboxamide], the EC50 under setting [1] stood at 0.051 µM. This counts as double-digit nanomolar.

For `Cc1nc2ccc(-c3cncc(N(CC45CCC(c6noc(C(C)(C)C)n6)(CC4)CC5)C(=O)C45CC(F)(C4)C5)c3)cc2s1` [Example 484, N-((4-(5-(tert-butyl)-1,2,4-oxadiazol-3-yl)bicyclo[2.2.2]octan-1-yl)methyl)-3-fluoro-N-(5-(2-methylbenzo[d]thiazol-6-yl)pyridin-3-yl)bicyclo[1.1.1]pentane-1-carboxamide], a half-maximal response (EC50) required 0.344 µM. In other words, the sub-micromolar range.

In turn, `CCOc1ncc(-c2cccc(N(CC34CCC(c5nc(C(C)(C)C)no5)(CC3)CC4)C(=O)C34CC(F)(C3)C4)c2)cn1` [Example 357, N-((4-(3-(tert-butyl)-1,2,4-oxadiazol-5-yl)bicyclo[2.2.2]octan-1-yl)methyl)-N-(3-(2-ethoxypyrimidin-5-yl)phenyl)-3-fluorobicyclo[1.1.1]pentane-1-carboxamide] gave an EC50 under setting [1] of 0.083 µM.

As usually defined, the EC50 is the concentration that produces a half-maximal response. A low value points to an effect from little substance.
